One data set concerns hyperalgesia. Further details: method as in PMID 16203828. Conditions: in vivo; cited from earlier work.
In the next data set the test system is GIVA cPLA2. Set-up: method as in PMID 16203828. Conditions: in vitro; cited from earlier work.
The subject of a further data set is spinal PGE2 release. Further details: method as in PMID 16203828. Conditions: in vivo; cited from earlier work.
For another data set, the system named is GVIA iPLA2. Further details: method as in PMID 16203828. The following applies: in vitro; cited from earlier work.
The subject of data set [1] is PGE2 generation in rat mesangial cells. Conditions: cited from earlier work; for EC50: read-out: EC50, inhibition of PGE2 formation.
For data set [2] the test system is unchanged. The data set can be described thus: Suppression of IL-1β/forskolin-stimulated PGE2 generation in rat renal mesangial cells. The format is cell-based. The following applies: Rattus norvegicus, Mesangial cell, 24 h; for inhibition at 3 µM: 1 nM IL-1β plus 5 μM forskolin; for IC50: 0.1 to 3 µM, IL-1β plus forskolin, read-out: EC50 (μM), inhibition of PGE2 generation. Here is the method: Rat renal mesangial cells (clone MZ B1), isolated and characterized as previously described, were cultivated in RPMI 1640 medium supplemented with 10% fetal bovine serum; 10 mM 4-(2-hydroxyethyl)-1-piperazineethanesulfonic acid (HEPES), pH 7.4; 6 µg/mL of bovine insulin; 5 µg/mL of transferrin; 5 nM sodium selenite; 100 units/mL of penicillin; and 100 µg/mL of streptomycin. The cells were incubated for 4 h in Dulbecco’s modified Eagle’s medium (DMEM) containing 10 mM HEPES, pH 7.4, and 0.1 mg/mL of fatty acid-free bovine serum albumin (BSA), prior to stimulation.
Confluent mesangial cells in 24-well plates were pretreated for 20 min with varying concentrations of inhibitors and then stimulated for 24 h in a total volume of 400 µL of DMEM containing 0.1 mg/mL of BSA, in the absence or presence of 1 nM interleukin 1β (IL-1) plus 5 μM forskolin (Fk). Thereafter, the supernatants were collected and centrifuged for 5 min at 1000× g. The PGE2 in the supernatant was quantified using an enzyme-linked immunoassay (Enzo Life Sciences, Lörrach, Germany) following the manufacturer’s recommendations.
Statistical analysis of the data was performed using one-way analysis of variance (ANOVA) followed by a Bonferroni’s post hoc test for multiple comparisons (GraphPad Prism 8.4.3., San Diego, CA, USA). The half maximal effective concentrations (EC50) of the inhibitors were calculated using the same software.

For data set [3], the system named is rat-paw carrageenan-induced edema. The data set can be described thus: Rat-paw carrageenan-induced-edema assay. In kind it is in vivo. Conditions: for In vivo anti-inflammatory activity compared with indomethacin: 0.01 mmol/kg, same dose as indomethacin. On the procedure:
The anti-inflammatory activities of selected aminobenzothiazole derivatives were determined by employing the rat-paw carrageenan-induced-edema assay, as previously described. Only male animals (180–220 g body weight) were used. Each group was composed of five animals. The animals were divided into three five-membered groups, and all the tested compounds were suspended in water (0.01 mmol/mL/kg body weight), with a few drops of Tween 80, and ground in a mortar before being administered intraperitoneally simultaneously. After treatment with the tested compounds in group 1, a 2nd group was used as a positive control (indomethacin at 0.01 mmol/mL/kg body weight, i.p.), and another group (3rd) served as the control in which water was administered (negative control). The compounds were injected intraperitoneally at the same time as carrageenan was given by intradermal injection. The rats were euthanized 3.5 h post-injection. The weight of the uninjected with carrageenan paw was subtracted from the weight of the injected paw for each animal. The change in paw weight for the treated animals was compared to that for the control animals and expressed as the percent inhibition of edema. The values of CPE % are the means from three different experiments with standard errors of the mean less than 10%. The statistical significance of the results was established with Student’s t-test, for * p < 0.01 and ** p < 0.05. All the animal experiments performed in the manuscript were conducted in compliance with institutional guidelines. Our studies were in accordance with recognized guidelines on animal experimentation (guidelines for the care and use of laboratory animals published by the Greek Government 160/1991, based on EU regulations 86/609). The rats were kept in the Centre of the School of Veterinary Medicine (EL54 BIO42), Aristotle University of Thessaloniki, which is registered by the official state veterinary authorities (presidential degree 56/2013, in harmonization with the European Directive 2010/63/EEC). The experimental protocols were approved by the Animal Ethics Committee of the Prefecture of Central Macedonia (no. 270079/2500).
In general terms: Carrageenan injected into the paw causes an acute inflammation.

In data set [4] the test system is NO formation in cytokine-stimulated rat mesangial cells. The experiment in a line: IL-1/Fk-stimulated nitrite (NO) formation in rat mesangial cells, Griess assay. Conditions: IL-1 plus Fk, 24 h; nitrite in supernatants. The format is cell-based. On the procedure:
Figure S1. Effect of the inhibitor 19a on IL-1/Fk-stimulated nitrite formation in rat mesangial
Cells were pretreated for 20 min with the indicated concentrations of 19a and then stimulated for
24 h in the absence (-) or presence (+) of 1 nM interleukin 1β (IL-1) plus 5 µM forskolin (Fk).
Nitrite was quantified in supernatants using Griess assay as previously described.1 Data are
presented as mM of nitrite and are means +/- S.D. (n = 3).
1β induction of nitric oxide synthase in renal mesangial cells. Eur. J. Pharmacol. 1993,
(1 picture or pasted object on this page, not shown here)

Data set [5] has as its target T1, human recombinant group VIA phospholipase A2 (GVIA iPLA2) (Homo sapiens, UniProt O60733).
T1 sequence (O60733 1-806): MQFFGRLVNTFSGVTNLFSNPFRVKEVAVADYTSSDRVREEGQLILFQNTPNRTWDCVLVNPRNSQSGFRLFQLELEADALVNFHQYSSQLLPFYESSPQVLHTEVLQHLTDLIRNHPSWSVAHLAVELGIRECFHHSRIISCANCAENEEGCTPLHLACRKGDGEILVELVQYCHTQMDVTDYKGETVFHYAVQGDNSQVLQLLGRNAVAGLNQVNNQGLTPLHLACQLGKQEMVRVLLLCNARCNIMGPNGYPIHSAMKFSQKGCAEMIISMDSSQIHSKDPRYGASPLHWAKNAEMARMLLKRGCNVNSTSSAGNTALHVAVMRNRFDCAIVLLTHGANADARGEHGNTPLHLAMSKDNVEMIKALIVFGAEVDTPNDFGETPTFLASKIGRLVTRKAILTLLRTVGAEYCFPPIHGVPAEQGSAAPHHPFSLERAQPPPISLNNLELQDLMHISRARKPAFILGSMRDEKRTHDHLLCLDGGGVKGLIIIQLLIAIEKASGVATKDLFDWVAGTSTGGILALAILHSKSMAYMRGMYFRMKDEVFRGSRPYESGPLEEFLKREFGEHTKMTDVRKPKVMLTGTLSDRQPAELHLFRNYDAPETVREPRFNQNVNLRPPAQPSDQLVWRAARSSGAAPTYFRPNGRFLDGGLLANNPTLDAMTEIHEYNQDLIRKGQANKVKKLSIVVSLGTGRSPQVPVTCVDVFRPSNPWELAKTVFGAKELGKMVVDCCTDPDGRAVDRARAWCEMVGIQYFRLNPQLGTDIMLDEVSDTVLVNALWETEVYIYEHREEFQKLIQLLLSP
The data set can be described thus: Lipidomics-based mixed micelle PLA2 activity assay, GVIA iPLA2. The following applies: mole fraction of inhibitor in total substrate interface required to inhibit enzyme activity by 50%. The format is biochemical.

The test system of data set [6] is PGE2 generation in CD4+ T cells. Further details: method as in PMID 25213337. Conditions: cited from earlier work.
Data set [7] deals with allodynia after facial carrageenan injection. The following applies: after facial carrageenan injection in mice; cited from earlier work.

Some results are limits rather than exact numbers.

What is called EC50 is the concentration needed to bring the measured effect to its halfway point. What is called inhibition is the relative decrease from the control value, in per cent. The term melting point denotes the temperature of the solid-liquid transition.

Take `CCCCCCCCCCCCCCC(=O)C(=O)NCCCC(=O)OCC` [AX048, ethyl 4-(2-oxohexadecanamido)butanoate]: in the data set with hyperalgesia, the Anti-hyperalgesic activity result is “anti-hyperalgesic activity”. For the same molecule, the “XI(50) for GIVA cPLA2” value in the data set with GIVA cPLA2 is 0.022 mole fraction. In addition, in the data set with spinal PGE2 release, the “Inhibition of spinal PGE2 release” value is “inhibits spinal PGE2 release”. Further, in the data set on GVIA iPLA2, the “XI(50) for GVIA iPLA2” value was 0.027 mole fraction.
Turning to `O=C(CCCCc1ccc2ccccc2c1)c1nc2ccccc2s1` [Compound 1], the “% inhibition of PGE2 generation” value in data set [1] (comparison value for compound 1) was 85%. Besides, in [1] (rat mesangial cells), the EC50 was 710 nM.
Turning to `O=C(CCCCc1ccc2ccccc2c1)c1nc2ccccc2o1` [Compound 2], the EC50 in data set [1] (rat mesangial cells) is 790 nM.
On to `O=C(CCc1ccc2ccccc2c1)Nc1nc2ccccc2s1` [Compound 5b, N-(Benzo[d]Thiazol-2-yl)-3-(Naphthalen-2-yl)Propanamide], for which the melting point fell in the range of 46 to 48 °C. Besides, in data set [2], the inhibition at 3 µM was above 80% and the IC50 is 0.173 µM. Also, the “In vivo anti-inflammatory activity compared with indomethacin” value in [3] was “higher than that of indomethacin”. For the same molecule, in data set [3] (listed as GK510), the “In vivo anti-inflammatory activity compared with indomethacin” value is reported as “greater than that of indomethacin”.
On to `c1ccc2cc(CCCNc3nc4ccccc4s3)ccc2c1` [Compound 19a, N-(3-(Naphthalen-2-yl)Propyl)Benzo[d]Thiazol-2-Amine], for which the melting point is 112 to 114 °C. The “Effect on NO production” value in data set [4] is recorded as “No effect”. For the same molecule, in [2], the inhibition at 3 µM was above 80% and the IC50 stood at 0.118 µM. For the same molecule, the “XI(50) for GVIA iPLA2” value in data set [5] came out at 0.03 mole fraction. Moreover, the “In vivo anti-inflammatory activity compared with indomethacin” value in data set [3] is on record as “higher than that of indomethacin”. Also, in [3] (listed as GK543), the “In vivo anti-inflammatory activity compared with indomethacin” value is “greater than that of indomethacin”.
With `O=C(CCCCc1ccc2ccccc2c1)C(F)(F)F` [FKGK18, 1,1,1-trifluoro-6-(2-naphthalenyl)-2-hexanone], the “Inhibition of generation of PGE2” value in [6] is “inhibit the generation of PGE2”.
On to `COc1ccc2c(c1)c(CC(=O)O)c(C)n2C(=O)c1ccc(Cl)cc1` [Indomethacin, reference compound], for which the “% Reduction of Rat-Paw Edema” value in [3] (0.01 mmol/kg i.p., given with carrageenan, 3.5 h post-injection) was 37.3%.
`CCCCC/C=C\C/C=C\C/C=C\C/C=C\CCCC(=O)C(F)(F)F` [arachidonoyl trifluoromethyl ketone]: in data set [7], the Effect on allodynia result is listed as “modulates allodynia”. Also, the “Inhibition of cytokine-stimulated generation of PGE2” value in [1] (rat mesangial cells) is reported as “inhibits”.

These data come from article PMC8961538, “N-Acylated and N-Alkylated 2-Aminobenzothiazoles Are Novel Agents That Suppress the Generation of Prostaglandin E2” (Biomolecules, 2022).
